In brackets after ≈: the same amount, converted by molar mass.
Assays:
[1] = test system: Mtb clinical strain NHN382 (isoniazide-resistant); format: cell-based, Mycobacterium tuberculosis
[2] = test system: Mtb clinical strain TN587 (isoniazide-resistant); format: cell-based, Mycobacterium tuberculosis

SMILES	MIC, Mtb strain NHN382 [1] [µg/mL]	MIC, Mtb strain TN587 [2] [µg/mL]
NNC(=O)c1ccncc1 [INH, isoniazid, reference compound]	0.25 (≈ 1.82 µM)	0.25 (≈ 1.82 µM)
CCCCOC(=O)Nc1cc2nc(C3CCCCC3)[nH]c2cc1N(C)C [Compound 5f, 5-Butyloxycarbonylamino-2-cyclohexyl-6-N,N-dimethylamino-1H-benzo[d]imidazole]		0.13 (≈ 0.363 µM)
